Literature values in patent US9642863B2, “Methods for treating chronic or unresolvable pain and/or increasing the pain threshold in a subject and pharmaceutical compositions for use therein” (White Mountain Pharma, Inc., priority 2010, dated 2017).

Legend:
rats = settings: treatment with testosterone
[1] = test system: female-to-male transsexuals; settings: doses of testosterone at or above the male reference range
women with fibromyalgia = settings: female fibromyalgia patients, transdermal testosterone
[2] = genotypic females dosed with testosterone, 36 months
[3] = test system: chronic pain subjects on maintenance opioids; settings: four patients, testosterone adjunctive to primary opioid therapy, anecdotal

C[C@]12CC[C@H]3[C@@H](CCC4=CC(=O)CC[C@@]43C)[C@@H]1CC[C@@H]2O [testosterone]
pain responses to the formalin test (rats): decreased pain responses | side effects [1]: develop hirsutism and male-like increased risk for cardiovascular disease and diabetes | fibromyalgia muscle tender point pain (women with fibromyalgia): significantly improve | stable serum total testosterone levels [2]: about 620+/−130 ng/dL | quality of life [3]: improved quality of life
